What all share (assay type): in vivo
Data set [1] relates to C57BL/6J mice. The experiment in a line: Pharmacological Test-3: once-daily instillation of Compounds 1, 2 and 3 for 2 weeks, lens elasticity. The settings on record: once per day for 14 days; for Lens elasticity improvement: 2.5 μL/eye, 8-month-old mice, vs vehicle control. How it is done:
The effect of once-daily instillation of each of Compounds 1, 2 and 3 for 2 weeks on the lens elasticity was examined.
(§1) A vehicle comprising 1.0% (w/v) of CO35, 0.1% (w/v) of ethyl pyruvate, 0.269% (w/v) of sodium dihydrogenphosphate monohydrate (NaH2 PO4.H2O), 0.433% (w/v) of disodium hydrogenphosphate (Na2HPO4), 0.2% (w/v) of hydroxypropyl methylcellulose, 0.5% (w/v) of NaCl, and purified water (appropriate amount) was prepared.
Each of Compounds 1 and 2 was stirred with the addition of the vehicle to give a 0.1% (w/v) solution.
To Compound 3 was added the vehicle to give a 0.1% (w/v) suspension. The resulting 0.1% (w/v) suspension was diluted with the vehicle to give a 0.03% (w/v) solution. Further, the resulting 0.03% (w/v) solution was diluted with the vehicle to give a 0.01% (w/v) solution.
After preparation, all were frozen.
1) Each test sample (2.5 μL/eye) was instilled into both eyes of 8-month-old C57BL/6J mice with a Pipetman once per day (around 9:00) for 14 days.
(§2) 2) After the final instillation, the mice were euthanized by carbon dioxide inhalation, and then the eyeballs were extracted and rinsed with Hank's balanced salt solution (HBSS).
(§3) 3) The sclera near the optic nerve was cut with a razor, the lens was removed through the incision, and the removed lens was immersed in HBSS.
(§4) 4) The lens was placed on a glass slide, and an all-in-one fluorescence microscope BZ-9000 (Keyence) was used to capture an image of the lens (Image a).
(§5) 5) Next, one cover glass (Corning(registered trade mark) 22×22 mm Square) was placed on the lens, and an image in which the thickness of the lens changed due to the weight was similarly captured (Image b).
(§6) 6) A change in the lens diameter was calculated from Equation 1 wherein the lens diameter of Image a is subtracted from the lens diameter of Image b, as described below. Then, the lens elasticity improvement of each sample group compared with the vehicle control group was calculated from Equation 2 described below. The mean value of each group was based on 10 eyes.
(§7) Change in lens diameter=Lens diameter in Image b of each test sample−Lens diameter in Image a of each test sample Equation 1
(§8) Lens elasticity improvement of each sample group=Mean change in lens diameter of each Test sample group−Mean change in lens diameter of Vehicle control group Equation 2

The subject of data set [2] is C57BL/6J mice. The data set is described as follows: Pharmacological Test-4: once-daily instillation of Compounds 3 and 4 for 2 weeks, lens elasticity. The settings on record: once per day for 14 days; for Lens elasticity improvement: 2.5 μL/eye, 8-month-old mice, vs vehicle control. On the procedure:
The effect of once-daily instillation of each of Compounds 3 and 4 for 2 weeks on the lens elasticity was examined.
as §1
Compound 3 was stirred with the addition of the vehicle to give a 0.03% (w/v) suspension.
Compound 4 was stirred with the addition of the vehicle to give a 0.1% (w/v) suspension. The resulting 0.1% (w/v) suspension was diluted with the vehicle to give a 0.03% (w/v) suspension. Further, the resulting 0.03% (w/v) suspension was diluted with the vehicle to give a 0.01% (w/v) suspension.
(§9) After preparation, all were refrigerated.
1) Each test sample (2.5 μL/eye) was instilled into both eyes of 8-month-old
C57BL/6J mice with a Pipetman once per day (around 9:00) for 14 days.
as §2, §3, §4, §5, §6, §7, §8

Another data set has as its system Japanese White rabbit. The data set is described as follows: Ocular irritation test-2 (McDonald-Shadduck method). On the set-up: key to Irritation Score of anterior segment of the eye: Discharge / Irritation Score of anterior segment of the eye: Anterior chamber flare / Irritation Score of anterior segment of the eye: Light reflex / Irritation Score of anterior segment of the eye: Iris / Irritation Score of anterior segment of the eye: Corneal opacity / Irritation Score of anterior segment of the eye: Corneal angiogenesis / Irritation Score of anterior segment of the eye: Corneal epithelial disorder / Irritation Score of anterior segment of the eye: Conjunctival hyperemia / Irritation Score of anterior segment of the eye: Conjunctival edema: —: No noteworthy findings. The settings on record: 50 μL/eye, 10 times at 30-minute intervals; for Irritation Score of anterior segment of the eye: Anterior chamber flare / Irritation Score of anterior segment of the eye: Conjunctival edema / Irritation Score of anterior segment of the eye: Corneal angiogenesis / Irritation Score of anterior segment of the eye: Corneal opacity / Irritation Score of anterior segment of the eye: Discharge / Irritation Score of anterior segment of the eye: Iris / Irritation Score of anterior segment of the eye: Light reflex / Irritation Score of anterior segment of the eye: Conjunctival hyperemia: 1 hour after the final instillation; for Irritation Score of anterior segment of the eye: Conjunctival hyperemia: scale +1 slight, +2 moderate, +3 severe; for Irritation Score of anterior segment of the eye: Corneal epithelial disorder: 3 hours after the final instillation. How it is done:
A vehicle eye drop and 0.01% (w/v) and 0.1% (w/v) Compound 4 eye drops were prepared in the same manner as Preparation of Test sample in Pharmacological test-4.
The vehicle eye drop, and the 0.01% (w/v) and 0.1% (w/v) Compound 4 eye drops were each instilled into one eye of a Japanese White rabbit at a dose volume of 50 μL/eye with pipette 10 times at 30-minute intervals. One hour after the final instillation, ocular irritation of anterior segment of the eye was evaluated using a slit lamp according to the McDonald-Shadduck method. Observation for corneal epithelial disorder was conducted 3 hours after the final instillation.
The ocular irritation of anterior segment of the eye was scored according to the following criteria: • +1: slight; +2: moderate; +3: severe

Data set [3] concerns C57BL/6J mice. The experiment in a line: Pharmacological Test-5: once-daily instillation of Compounds 5, 6 and 7 for 2 weeks, lens elasticity. Conditions: once per day for 14 days; for Lens elasticity improvement: 2.5 μL/eye, 8-month-old mice, vs vehicle control. How it is done: The effect of once-daily instillation of each of Compounds 5, 6, and 7 for 2 weeks on the lens elasticity was examined.
as §1
Compound 5 was stirred with the addition of the vehicle to give a 0.1% (w/v) suspension. The resulting 0.1% (w/v) suspension was diluted with the vehicle to give a 0.03% (w/v) suspension.
Compound 6 was stirred with the addition of the vehicle to give a 0.1% (w/v) suspension. The resulting 0.1% (w/v) a suspension was diluted with the vehicle to give a 0.03% (w/v) suspension.
Compound 7 was stirred with the addition of the vehicle to give a 0.1% (w/v) suspension.
as §9
EVO6 was stirred with the addition of the vehicle to give a 0.03% (w/v) solution, which was for comparison in the test for Compounds 5, 6 and 7. After preparation, it was refrigerated.
1) Each test sample (2.5 μL/eye) was instilled into both eyes of 8-month-old C57BL/6J mice with a Pipetman once per day (around 13:30) for 14 days.
as §2, §3, §4, §5
6) A change in the lens diameter was calculated from Equation 1 wherein the lens diameter of Image a is subtracted from the lens diameter of Image b, as described below. Then, the lens elasticity improvement of each sample group compared with the vehicle control group was calculated from Equation 2 described below. The mean value of each group was based on 8 eyes.
as §7, §8

The mark [4] stands for this setting: all of the concentrations of 0.01%, 0.03% and 0.1%.
[5] abbreviates: concentrations of 0.03% and 0.1%.

Take `OCCCCCC(S)CCS` (centres unmarked) [Compound 2, 6,8-Dimercaptooctan-1-ol]: the “Lens elasticity effect (in words)” value in the data set with C57BL/6J mice [1] (0.03% sample group) is “potent elasticity improving effect”. The compound further yielded a Lens elasticity improvement in the data set on C57BL/6J mice [1] (0.03% sample) of 42.2 μm.
In the case of `OCCCCCC1CCSS1` (centres unmarked) [Compound 3, 5-(1,2-Dithiolan-3-yl)pentan-1-ol], the Lens elasticity improvement in the data set on C57BL/6J mice [1] (0.01% sample) is reported as 21.5 μm; in the data set on C57BL/6J mice [1] (0.03% sample), 47.3 μm; in the data set with C57BL/6J mice [1] (0.1% sample), 60.1 μm; in the data set on C57BL/6J mice [2] (0.03% sample) it was 39.9 μm. Also, the “Lens elasticity effect (in words)” value in the data set on C57BL/6J mice [1] (setting [4]) is on record as “showed an elasticity improving effect”.
As to `OCCCCC[C@@H]1CCSS1` [Compound 4], the Lens elasticity improvement with C57BL/6J mice [2] (0.01% sample) was determined as 31.1 μm. In the data set with C57BL/6J mice [2] (0.03% sample), this compound came in with a Lens elasticity improvement of 60.2 μm. This compound also displayed a Lens elasticity improvement in the data set on C57BL/6J mice [2] (0.1% sample) of 66.7 μm. Also, the “Lens elasticity effect (in words)” value in the data set with C57BL/6J mice [2] (setting [4]) is listed as “showed an elasticity improving effect”. In addition, in the data set on Japanese White rabbit (0.01% (w/v) and 0.1% (w/v) eye drops), the “Irritation in anterior segment of the eye (in words)” value is given as “No irritation was observed”. For the same compound, in the data set on Japanese White rabbit (0.01% eye drop), the “Irritation Score of anterior segment of the eye: Anterior chamber flare” value is “—”, the “Irritation Score of anterior segment of the eye: Conjunctival edema” value is on record as “—”, the “Irritation Score of anterior segment of the eye: Corneal angiogenesis” value is “—” and the “Irritation Score of anterior segment of the eye: Corneal opacity” value was “—”. For the same compound, in the data set with Japanese White rabbit (0.01% eye drop), the “Irritation Score of anterior segment of the eye: Discharge” value is listed as “—”, the “Irritation Score of anterior segment of the eye: Iris” value is “—”, the “Irritation Score of anterior segment of the eye: Light reflex” value is “—” and the “Irritation Score of anterior segment of the eye: Conjunctival hyperemia” value is “—”. Besides, in the data set with Japanese White rabbit (0.01% eye drop), the “Irritation Score of anterior segment of the eye: Corneal epithelial disorder” value is on record as “—”. Besides, in the data set with Japanese White rabbit (0.1% eye drop), the “Irritation Score of anterior segment of the eye: Anterior chamber flare” value is reported as “—”, the “Irritation Score of anterior segment of the eye: Conjunctival edema” value is listed as “—”, the “Irritation Score of anterior segment of the eye: Corneal angiogenesis” value was “—” and the “Irritation Score of anterior segment of the eye: Corneal opacity” value is “—”. In the data set on Japanese White rabbit (0.1% eye drop), the “Irritation Score of anterior segment of the eye: Discharge” value is “—”, the “Irritation Score of anterior segment of the eye: Iris” value was “—”, the “Irritation Score of anterior segment of the eye: Light reflex” value was “—” and the “Irritation Score of anterior segment of the eye: Conjunctival hyperemia” value is listed as “—”. Further, the “Irritation Score of anterior segment of the eye: Corneal epithelial disorder” value in the data set with Japanese White rabbit (0.1% eye drop) is given as “—”.
For `OCCCCCCC1CCSS1` (centres unmarked) [Compound 5, 6-(1,2-Dithiolan-3-yl)hexan-1-ol], the Lens elasticity improvement in the data set on C57BL/6J mice [3] (0.03% sample) is recorded as 22.3 μm; with C57BL/6J mice [3] (0.1% sample) it was 26.6 μm. Also, the “Lens elasticity effect (in words)” value with C57BL/6J mice [3] (setting [5]) is given as “potent elasticity improving effect”.
On the same counts, the results for `OCCCCC1CCSS1` (centres unmarked) [Compound 6, 4-(1,2-Dithiolan-3-yl)butan-1-ol] are 40.0 μm, 58.9 μm and “potent elasticity improving effect”.
As to `OCCOCCC1CCSS1` (centres unmarked) [Compound 7, 2-[2-(1,2-Dithiolan-3-yl)ethoxy]ethan-1-ol], the “Lens elasticity effect (in words)” value in the data set with C57BL/6J mice [3] (0.1% sample group) is reported as “potent elasticity improving effect”. The same compound yielded a Lens elasticity improvement in the data set with C57BL/6J mice [3] (0.1% sample) of 41.4 μm.

Source of the values: US20230346744A1, “SULFUR-CONTAINING COMPOUND USEFUL FOR TREATING OR PREVENTING PRESBYOPIA” (SANTEN PHARMACEUTICAL CO., LTD., priority 2020, published 2023).
